According to US20190071670A1, “Methods Of Treatment For Alpha-1 Antitrypsin Deficiency” (Arrowhead Pharmaceuticals, Inc., priority 2016, published 2019):
Strand notation (5' to 3'): a small letter for the sugar, then the base; units joined by * are phosphorothioate-linked, units joined directly phosphodiester-linked; [ ] holds rarer units or linkages, { } end groups; capitals alone tell only the bases. {Chol-TEG} = cholesterol-triethylene glycol conjugate; [UNA-N] = unlocked nucleic acid (N: the base); [invdT] = inverted (3'-3') thymidine; d = 2'-deoxy (DNA); m = 2'-O-methyl; r = 2'-OH (RNA); f = 2'-fluoro

Assays:
[1] = tested on: Z-AAT; conditions: PiZ mouse model of AATD, cited from earlier work
[2] = tested on: hAAT; test: Serum hAAT protein levels in PiZ mice (ELISA); type: in vivo, human (expressed in PiZ mice); conditions: for Serum hAAT normalized to day 1: PiZ mice, single IV 6 mg/kg with 6 mg/kg MLP delivery polymer; for Serum hAAT normalized to day 1 and controls: female PiZ mice, single IV 8 mg/kg + 8 mg/kg MLP delivery polymer, mice euthanized Day 29
Protocol: (§1) Human AAT protein levels in serum were monitored for 29 days. At the indicated times, blood samples were collected and assayed for hAAT by ELISA. Day 1 samples were collected prior to trigger administration. For mRNA analysis, 3-4 mice were euthanized at each of days 3, 8, 15, 22, and 29. For euthanized mice, cardiac stick were performed for serum isolation for AAT ELISA (200 μl serum). Half of the left lateral liver lobe was collected and snap-freeze in liquid nitrogen for RNA isolation. The remainder of the left lobes were embedded into paraffin blocks for PAS-D staining with hematoxylin as counter-stain. Serum hAAT levels in mice given AAT Duplex Pair SEQ ID NO: 5/6 were 95% reduced on day 8 and remained reduced to day 29, at which time they were 79% reduced. Mice given AAT Duplex Pair SEQ ID NO: 5/6 were euthanized at either day 3, 8, 15, 22 or 29. Mice given saline or Luciferase siRNA control (SEQ ID 7/8) were euthanized on day 29. Levels of hAAT mRNA in the livers were measured by RT-qPCR. The hAAT mRNA in mice given AAT Duplex Pair SEQ ID NO: 5/6 was reduced by 97% on day 3 and remained reduced on day 29, at which time levels were 56% reduced. The size of the globules and the area of the liver covered by globules was digitally quantitated from liver specimens stained with PAS-D. Duplex Pair SEQ ID NO: 5/6 treated mice had 70% smaller globules at day 15 and 62% smaller globules at day 29. The area of the liver covered with globules was 83% reduced on day 15 and 72% reduced on day 29 (FIG. 5).

[3] = tested on: hAAT mRNA; test: Liver hAAT mRNA levels in PiZ mice (RT-qPCR); type: in vivo, human (expressed in PiZ mice); conditions: PiZ mice liver
Protocol: Compositions comprising double-stranded AAT expression-inhibiting oligomeric compounds were administered to PiZ mice. PiZ mice harbor the human PiZ AAT mutant allele and model human AATD (Carlson et al. Journal of Clinical Investigation 1989). […] Liver hAAT mRNA production was measured at days 3 and 10. Reduced mRNA levels correlated with decreased serum hAAT protein levels, except that mRNA reduction preceded protein reduction by a few days. The level of liver hAAT mRNA production was measured at day 3 and day 10 following a single dose of AAT RNAi agent with MLP delivery polymer in PiZ mice. A sustained decrease in liver hAAT mRNA levels was observed that correlated with the decrease observed in serum hAAT protein levels.
as §1

For NC(=O)N1c2ccccc2C=Cc2ccccc21 [carbamazepine], the “Z-AAT globules in hepatocytes and hepatic fibrosis” value [1] is listed as “mediate a reduction in Z-AAT globules in hepatocytes and ameliorated hepatic fibrosis”.

For “Luciferase siRNA control: Luciferase double-stranded siRNA control, SEQ ID NO: 7 and Chol-TEG SEQ ID NO: 8 (chain 1 dTfCmGfAmAfG[UNA-U]fAmCfUmCfAmGfCmGfUmAfAmGdT*dT; chain 2 {Chol-TEG}-mUrAmUfCmUfUmAfCmGfCmUfGmAfGmUfAmCfUmUfCmGfA[invdT]) [reference compound]”, the “Serum hAAT normalized to day 1” value ([2]; day 1 (reference)) was 1.00, the “Serum hAAT normalized to day 1” value ([2]; day 3) was 1.110 ± 0.147 and the “Serum hAAT normalized to day 1” value ([2]; day −2 (pre-dose)) was 0.766 ± 0.219. For the same molecule, the “Serum hAAT normalized to day 1 and controls” value ([2]; Day 1) was 1.000, the “Serum hAAT normalized to day 1 and controls” value ([2]; Day 3) was 0.994 ± 0.153 and the “Serum hAAT normalized to day 1 and controls” value ([2]; Day 8) was 1.090 ± 0.092. For the same molecule, the “Serum hAAT normalized to day 1 and controls” value ([2]; Day 15) was 0.890 ± 0.080, the “Serum hAAT normalized to day 1 and controls” value ([2]; Day 22) was 1.171 ± 0.095 and the “Serum hAAT normalized to day 1 and controls” value ([2]; Day 29) was 0.797 ± 0.074. For the same molecule, the “Serum hAAT normalized to day 1 and controls” value ([2]; Day −2) was 1.268 ± 0.143, the “Average relative mRNA level (hAAT)” value ([3]; one injection 8 mg/kg + 8 mg/kg MLP delivery polymer, Day 29) was 1.031 and the “hAAT mRNA level” value ([3]; single IV 6 mg/kg with 6 mg/kg MLP delivery polymer, relative to mouse β-actin mRNA, day 3) was 1.06 ± 0.20.

For OCCN1CCN(CCCN2c3ccccc3Sc3ccc(C(F)(F)F)cc32)CC1 [fluphenazine], the “Z-AAT globules in hepatocytes and hepatic fibrosis” value [1] is given as “mediate a reduction in Z-AAT globules in hepatocytes and ameliorated hepatic fibrosis”.

For C[C@H](CC(=O)O)[C@H]1CC[C@H]2[C@@H]3[C@@H](O)C[C@@H]4C[C@H](O)CC[C@]4(C)[C@H]3CC[C@]12C [nor-UDCA, nor-ursodeoxycholic acid], the “apoptotic signaling and accumulation of mutant Z-AAT in hepatocytes” value ([1]; associated with an increase in hepatic autophagy) is listed as “reduced apoptotic signaling and reduced accumulation of mutant Z-AAT in hepatocytes”.
